Where “and” joins values, the source holds several entries; their conditions need not be identical. Equal entries are not always repeated. Structures can show the parent of a compound that is named as a salt. Where two headings read alike, the source gives them in different places.
Columns and labels:
hNav 1.1 channel = target: T1, hNav 1.1 channel (Homo sapiens, UniProt P35498); assay: Block of cloned hNav1.1 channel in CHO cells (IonWorks Quattro); type: cell-based; settings: for IC50 fold above the parent: relative to mexiletine
T1 construct: expressed in transfected cells
Procedure: Data was corrected for leak current.
The tonic block was calculated as:
% Block (Tonic)=(1−ITP1,TA/ITP1,Control)×100%,
where ITP1, Control and ITP1, TA are the inward peak Na^+ currents elicited by the TP1 in control and in the presence of a test article, respectively. 10 Hz Block—the frequency-dependent block at stimulation frequency 10 Hz was calculated as: […]
where ITP11, Control and ITP11, TA are the inward peak Na^+ currents elicited by the TP11 in control and in the presence of a test article, respectively. The inactivation state block is defined as the decrease in test pulse (TP12) current amplitude due to the conditioning depolarizing pulse (TP11). The inactivation state block was calculated as:
% Block (inactivation state)=(1−(ITP12,TA/ITP12,TA)×100%,
where ITP12, Control and ITP12, TA are the inward peak Na^+ currents elicited by the TP12 in control and in the presence of a test article, respectively. Concentration-response data for the blocks were fit to an equation of the following form: […]

sodium channel = settings: De Bellis et al. (2006); cited from earlier work
[1] = Systemic availability of mexiletine in the cynomolgus monkey after oral prodrug dosing; type: in vivo; settings: 1 mg/kg mexiletine free base
[2] = Systemic availability of mexiletine in the dog after oral prodrug dosing; type: in vivo, Dog (Beagle); settings: 1 mg/kg mexiletine free base
Procedure: Test substances (i.e., mexiletine, and various mexiletine amino acid prodrugs) were administered by oral gavage to groups of five dogs. The characteristics of the test animals are set out in Table 6.
Blood samples were taken at various times after administration and submitted to analysis for parent drug using a validated LC-MS-MS assay. Pharmacokinetic parameters derived from the plasma analytical were determined using Win Nonlin.

[3] = system: rabbit stomach smooth muscle; assay: EFS-stimulated contractions of isolated rabbit stomach smooth muscle; settings: rabbit stomach antrum strips; EFS 14 Hz
[4] = mexiletine from prodrug vs parent
Procedure: Blood samples were taken at various times after administration and submitted to analysis for the prodrug and parent drug using a validated LC-MS-MS assay. Pharmacokinetic parameters derived from the plasma analytical were determined using Win Nonlin.

[5] = cited from earlier work
[6] = cited from earlier work; remark: listed apart in the source
[7] = hNav1.1 in CHO cells, frequency-dependent block at 10 Hz (TP11), read-out: IC50 10 Hz block
[8] = hNav1.1 in CHO cells, inactivation state block (TP12), read-out: IC50 Inactivated state
[9] = hNav1.1 in CHO cells, tonic block (TP1), read-out: IC50 Tonic block
[10] = hNav1.1, 10 Hz block, rounded values, read-out: IC50 values (with the 10 Hz block)

**Q.** For Cc1cccc(C)c1OCC(C)NC(=O)C(N)C1CC1 (centres unmarked) [Mexiletine cyclopropyl glycine amide], which IC50 (hNav 1.1 channel; [7]) is on record?
**A.** 170 µM

**Q.** And the IC50 (hNav 1.1 channel; [8])?
**A.** 42.7 µM

**Q.** What about the IC50 (hNav 1.1 channel; [9]) of the same compound?
**A.** 475 µM

**Q.** For Para-hydroxymexiletine, which “sodium channel inhibitory activity retained vs parent molecule” value (sodium channel) is on record?
**A.** around 25%

**Q.** Which results are given for Cc1cccc(C)c1OCC(C)NC(=O)c1cccnc1 (centres unmarked) [Mexiletine nicotinic acid amide]?
**A.** IC50 (hNav 1.1 channel; [7]): 350 µM; IC50 (hNav 1.1 channel; [8]): 61.2 µM; IC50 (hNav 1.1 channel; [9]): 495 µM

**Q.** For Cc1cccc(C)c1OCC(C)NC(=O)[C@@H](N)CCC(N)=O (stereo partly drawn) [Mexiletine glutamine amide, (S)-2-Amino-pentanedioic acid 5-amide 1-{[2-(2,6-dimethyl-phenoxy)-1-methyl-ethyl]-amide}hydrochloride], which IC50 (hNav 1.1 channel; [7]) is on record?
**A.** 139 µM

**Q.** And the IC50 (hNav 1.1 channel; [8])?
**A.** 67.3 µM

**Q.** What about the IC50 (hNav 1.1 channel; [9]) of the same compound?
**A.** 751 µM

**Q.** Which results are given for Cc1cccc(C)c1OCC(C)NC(=O)CN.O=C(O)C(F)(F)F (racemic) [(rac)-mexiletine-glycine trifluoroacetate]?
**A.** IC50 (hNav 1.1 channel; [7]): 107 µM; IC50 (hNav 1.1 channel; [8]): 21.2 µM; IC50 (hNav 1.1 channel; [9]): 398 µM; F (abs) [1]: 41.5 ± 4.11%; F (abs) [2]: 57 ± 6%; duration of vomiting relative to mexiletine (ferret; % of that seen after mexiletine itself): less than 30%; average number of vomits relative to parent drug (ferret; % of those observed after dosing the parent drug): less than 30%; calculated ED50, attenuation of EFS induced contractions [3]: 9.16 µM; Frel ([4]; individual ferrets, oral 10 mg free base equivalents/kg): 67% and 107% and 103% and 77% and 108% and 101%; Frel, Mean ([4]; mean of six ferrets): 94%

**Q.** Which “F (abs)” value [2] does the source give for Cc1cccc(C)c1OCC(C)NC(=O)[C@@H](N)C(C)C.Cl (some centres unmarked) [Mexiletine valine amide] here?
**A.** 35 ± 6%

**Q.** What does the source list for Cc1cccc(C)c1OCC(C)NC(=O)C1CC(O)CN1 (centres unmarked) [Mexiletine 4-hydroxyproline amide]?
**A.** IC50 (hNav 1.1 channel; [7]): 37 µM; IC50 (hNav 1.1 channel; [8]): 15.5 µM; IC50 (hNav 1.1 channel; [9]): 147 µM

**Q.** Which “F (abs)” value [2] does the source give for Cc1cccc(C)c1OCC(C)NC(=O)[C@@H](N)Cc1ccccc1.Cl (some centres unmarked) [Mexiletine phenylalanine amide] here?
**A.** 38 ± 6%

**Q.** With Cc1cccc(C)c1OCC(C)NC(=O)[C@@H](N)CCCCN (mixture of isomers) [Mexiletine lysine amide, 2,6-diamino-hexanoic acid [2-(2,6-dimethylphenoxy)-1-methylethyl]-amide ditrifluoroacetate] as the compound, how does the “calculated ED50, attenuation of EFS induced contractions” value [3] read?
**A.** 21.83 µM

**Q.** With CNCC(=O)NC(C)COc1c(C)cccc1C (centres unmarked) [Mexiletine sarcosine amide] as the compound, how does the IC50 (hNav 1.1 channel; [7]) read?
**A.** 38.9 µM

**Q.** And the IC50 (hNav 1.1 channel; [8])?
**A.** 6.3 µM

**Q.** What about the IC50 (hNav 1.1 channel; [9]) of the same compound?
**A.** 186 µM

**Q.** With Cc1cccc(C)c1OCC(C)NC(=O)C(N)C(C)O (centres unmarked) [Mexiletine threonine amide] as the compound, how does the IC50 (hNav 1.1 channel; [7]) read?
**A.** 41.4 µM

**Q.** What about the IC50 (hNav 1.1 channel; [8]) of the same compound?
**A.** 11.6 µM

**Q.** And the IC50 (hNav 1.1 channel; [9])?
**A.** 234 µM

**Q.** Which results are given for Cc1cccc(C)c1OCC(C)NC(=O)C1CCCCN1 (centres unmarked) [Mexiletine pipecolic acid amide]?
**A.** IC50 (hNav 1.1 channel; [7]): 6 µM; IC50 (hNav 1.1 channel; [8]): 2.7 µM; IC50 (hNav 1.1 channel; [9]): 26 µM

**Q.** Which IC50 (hNav 1.1 channel; [7]) does the source give for Cc1cccc(C)c1OCC(C)NC(=O)C(N)Cc1c[nH]cn1 (centres unmarked) [Mexiletine histidine amide] here?
**A.** 42.1 µM

**Q.** What about the IC50 (hNav 1.1 channel; [8]) of the same compound?
**A.** 21.2 µM

**Q.** What about the IC50 (hNav 1.1 channel; [9]) of the same compound?
**A.** 79.5 µM

**Q.** With CC(C)C[C@H](CN)CC(=O)O [pregabalin] as the compound, how does the “patients with dizziness and somnolence” value ([5]; patients treated at the higher doses (FDA labeling)) read?
**A.** up to 30%

**Q.** Which results are given for Cc1cccc(C)c1OCC(C)NC(=O)[C@@H](N)CC[S+](C)C.Cl.[Cl-] (stereo partly drawn) [(S)-2-Amino-N-[2-(2,6-dimethyl-phenoxy)-1-methyl-ethyl]-4-(dimethyl-λ^4-sulfanyl chloride)-butyramide hydrochloride]?
**A.** IC50 fold above the parent (hNav 1.1 channel; hNav1.1): ~20 fold; IC50 (hNav 1.1 channel; [7]): > 1000 µM; IC50 (hNav 1.1 channel; [8]): > 1000 µM; IC50 (hNav 1.1 channel; [9]): > 1000 µM

**Q.** Which results are given for Cc1cccc(C)c1OCC(C)NC(=O)[C@@H](N)CCCCNC(=N)N (stereo partly drawn) [Mexiletine homoarginine amide, (S)-2-Amino-6-guanidino-hexanoic acid [2-(2,6-dimethyl-phenoxy)-1-methyl-ethyl]-amide dihydrochloride]?
**A.** IC50 (hNav 1.1 channel; [10]): 624 µM; IC50 fold above the parent (hNav 1.1 channel; hNav1.1): ~20 fold; IC50 (hNav 1.1 channel; [7]): 624 µM; IC50 (hNav 1.1 channel; [8]): 257 µM; IC50 (hNav 1.1 channel; [9]): 742 µM

**Q.** Which IC50 (hNav 1.1 channel; [10]) does the source give for Cc1cccc(C)c1OCC(C)N.Cl (racemic) [Mexiletine hydrochloride, (rac)-1-(2,6-dimethylphenoxy)-2-propanamine hydrochloride, reference compound] here?
**A.** 38 µM

**Q.** And the IC50 (hNav 1.1 channel; [7])?
**A.** 38.2 µM

**Q.** What about the IC50 (hNav 1.1 channel; [8]) of the same compound?
**A.** 9.1 µM

**Q.** And the IC50 (hNav 1.1 channel; [9])?
**A.** 115 µM

**Q.** And the “calculated ED50, attenuation of EFS induced contractions” value [3]?
**A.** 2.17 µM

**Q.** What does the source list for Cc1cccc(C)c1OCC(C)NC(=O)CN(C)C (centres unmarked) [Mexiletine dimethylglycine amide]?
**A.** IC50 (hNav 1.1 channel; [7]): 10.3 µM; IC50 (hNav 1.1 channel; [8]): 3.2 µM; IC50 (hNav 1.1 channel; [9]): 30.5 µM

**Q.** For Cc1cccc(C)c1OCC(C)NC(=O)C(N)CCCNC(N)=O (centres unmarked) [Mexiletine citrulline amide], which IC50 (hNav 1.1 channel; [7]) is on record?
**A.** 359 µM

**Q.** And the IC50 (hNav 1.1 channel; [8])?
**A.** 180 µM

**Q.** What about the IC50 (hNav 1.1 channel; [9]) of the same compound?
**A.** 491 µM

**Q.** What does the source list for Cc1cccc(C)c1OCC(C)NC(=O)C(N)CN (stereo not drawn) [Mexiletine β amino alanine amide]?
**A.** IC50 (hNav 1.1 channel; [7]): 180 µM; IC50 (hNav 1.1 channel; [8]): 61.8 µM; IC50 (hNav 1.1 channel; [9]): 478 µM

**Q.** Which IC50 (hNav 1.1 channel; [7]) does the source give for Cc1cccc(C)c1OCC(C)NC(=O)c1ccncc1 (centres unmarked) [Mexiletine isonicotinic acid amide] here?
**A.** 439 µM

**Q.** And the IC50 (hNav 1.1 channel; [8])?
**A.** 130 µM

**Q.** What about the IC50 (hNav 1.1 channel; [9]) of the same compound?
**A.** 818 µM

**Q.** Which results are given for Cc1cccc(C)c1OCC(C)NC(=O)[C@@H](N)CCC(=O)O.Cl (stereo partly drawn) [Mexiletine glutamic acid amide, (S)-4-Amino-4-[2-(2,6-dimethyl-phenoxy)-1-methyl-ethylcarbamoyl]-butyric acid hydrochloride]?
**A.** IC50 (hNav 1.1 channel; [10]): > 1000 µM; IC50 fold above the parent (hNav 1.1 channel; hNav1.1): ~20 fold; IC50 (hNav 1.1 channel; [7]): > 1000 µM; IC50 (hNav 1.1 channel; [8]): > 1000 µM; IC50 (hNav 1.1 channel; [9]): > 1000 µM

**Q.** For Cc1cccc(C)c1OCC(C)NC(=O)[C@@H](NC(=O)[C@@H](N)C(C)C)C(C)C.Cl (some centres unmarked) [Mexiletine valine-valine amide], which “F (abs)” value [2] is on record?
**A.** 50 ± 9%

**Q.** For Cc1cccc(C)c1OCC(C)NC(=O)CCN (stereo not drawn) [Mexiletine β alanine amide], which IC50 (hNav 1.1 channel; [7]) is on record?
**A.** 59.5 µM

**Q.** What about the IC50 (hNav 1.1 channel; [8]) of the same compound?
**A.** 23.5 µM

**Q.** And the IC50 (hNav 1.1 channel; [9])?
**A.** 245 µM

**Q.** With CNCC[C@H](Oc1cccc2ccccc12)c1cccs1 [Duloxetine] as the compound, how does the “treated patients with nausea” value ([5]; FDA labeling) read?
**A.** 20-40%

**Q.** Which IC50 (hNav 1.1 channel; [7]) does the source give for Cc1cccc(C)c1OCC(C)NC(=O)C(C)CN (stereo not drawn) [Mexiletine 2-methyl β alanine amide] here?
**A.** 51.8 µM

**Q.** And the IC50 (hNav 1.1 channel; [8])?
**A.** 16.3 µM

**Q.** What about the IC50 (hNav 1.1 channel; [9]) of the same compound?
**A.** 137 µM

**Q.** With Cc1cccc(C)c1OCC(C)NC(=O)C(N)CO (centres unmarked) [Mexiletine serine amide] as the compound, how does the IC50 (hNav 1.1 channel; [7]) read?
**A.** 50.3 µM

**Q.** What about the IC50 (hNav 1.1 channel; [8]) of the same compound?
**A.** 14.1 µM

**Q.** What about the IC50 (hNav 1.1 channel; [9]) of the same compound?
**A.** 239 µM

**Q.** Which Bioavailability ([6]; 900 mg/day gabapentin) does the source give for NCC1(CC(=O)O)CCCCC1 [gabapentin] here?
**A.** approximately 60%

**Q.** What about the Bioavailability ([6]; 1200 mg/day gabapentin) of the same compound?
**A.** ~47%

**Q.** And the Bioavailability ([6]; 2400 mg/day gabapentin)?
**A.** ~34%

**Q.** What about the Bioavailability ([6]; 3600 mg/day gabapentin) of the same compound?
**A.** ~33%

**Q.** What about the Bioavailability ([6]; 4800 mg/day gabapentin) of the same compound?
**A.** ~27%

From patent publication US20110028552A1, “MEXILETINE AMINO ACID AND PEPTIDE PRODRUGS AND USES THEREOF” (priority 2009, published 2011)
